Measured values reported in patent US20130252930A1 (BIOMARIN PHARMACEUTICAL INC., priority 2010, published 2013).
Like-named read-outs stand apart in the source and are kept apart here.

How the values were obtained:
[1] = molecular target: T1, CYP17 (H295R cells) (Homo sapiens, UniProt P05093); assay: CYP17 cellular assay (IC50), testosterone in H295R cells (Biological Example 7); format: cell-based; details: H295R cells
T1 construct: endogenous in cells; host or cells: H295R cells
T1 sequence (P05093 1-508): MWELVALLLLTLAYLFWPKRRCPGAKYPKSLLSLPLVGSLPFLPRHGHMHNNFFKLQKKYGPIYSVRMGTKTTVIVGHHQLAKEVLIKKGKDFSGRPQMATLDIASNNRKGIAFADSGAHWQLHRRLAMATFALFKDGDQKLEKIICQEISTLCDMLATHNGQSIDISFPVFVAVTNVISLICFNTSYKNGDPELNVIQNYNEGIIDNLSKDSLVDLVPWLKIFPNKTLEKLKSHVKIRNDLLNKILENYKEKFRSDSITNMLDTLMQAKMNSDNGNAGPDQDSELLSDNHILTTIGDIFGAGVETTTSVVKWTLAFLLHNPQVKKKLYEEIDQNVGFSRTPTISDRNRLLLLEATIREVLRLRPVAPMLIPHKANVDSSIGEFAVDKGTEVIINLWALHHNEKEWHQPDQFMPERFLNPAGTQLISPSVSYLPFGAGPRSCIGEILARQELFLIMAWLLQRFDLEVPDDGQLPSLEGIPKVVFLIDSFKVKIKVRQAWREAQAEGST
Description: The assays were performed in 96-well plates. Typically H295R cells were seeded at 4.5×10^4 cells/well in 100 μL Growth Medium containing DMEM/F-12 (Gibco/Invitrogen; 11330-032), 2.5% Nu-Serum (BD Bioscience; 355100) and ITS (BD Bioscience; 354352), and cultured at 37° C., 5% CO2 for 24 hr. The next day, media were carefully removed and cells were washed twice with 200 μL 1×HBSS++. Test compounds were then added to the cells at 100, 10, 1, 0.1 nM final concentrations in 125 μL volume per well in serum-free media containing DMEM/F-12 and ITS+ Premix (BD Bioscience; 354352) with 0.1% methanol. Serum-free media with 0.1% methanol without test compound was used as control. Cells were incubated with compounds at 37° C. for additional 24 hours, and the cultured media from each compound treated well was harvested for measurement of testosterone concentration by ELISA according to manufacturer's instruction (Assay Design). Testosterone concentration of each sample was plotted vs. the concentration of the test compounds.

[2] = molecular target: T2, CYP17 (human testicular microsome) (Homo sapiens, UniProt P05093); assay: CYP17 enzymatic assay (% inhibition at 1 nM) (Biological Example 12); format: biochemical; details: compound at 1 nM
T2 construct: using microsomal fraction from human testis (Celsis Cat #S00110) as the enzyme source; tissue Celsis S00110; host or cells: human testis microsomal fraction
T2 sequence (P05093 1-508): T1 sequence (P05093 1-508)

[3] = Human liver microsome stability assay (Biological Example 8b); details: liver microsomes, pH 7.4
Description: The reaction was started with addition of excess NADPH (5 mg/mL, 15 μL in 0.1 M potassium phosphate buffer, 1.0 mM EDTA, pH 7.4), the total volume is 45 μL (compound final concentration was 1 μM). […] 50 μL of the supernatant was transferred from each well into a 96-well sample plate containing 50 μL of ultra-pure water (Millipore) for LC-MS/MS analysis.

[4] = molecular target: T2, CYP17 (human testicular microsome); assay: CYP17 enzymatic assay (IC50) (Biological Example 4); format: biochemical; details: human testicular microsome
Description: The assays were performed in 96-well plates. Typical assays were carried out in total 100 μL volume that included test compounds at designated concentrations, 1× reaction buffer, 0.5 mM NADPH, 1 μM 17α-hydroxypregnenolone, and 2.5 μL of diluted human testicular microsome (Celsis. Cat #S00110). Reaction without test compound served as positive control. Reactions were allowed to incubate at 37° C. for 90 minutes with gentle shaking. The reaction was stopped by directly applying the enzymatic reaction mixture to ELISA plate for evaluation of DHEA concentration according to manufacturer's protocol (IBL America). A standard curve (OD450 vs. DHEA concentration) was generated using purified DHEA.

[5] = molecular target: T2, CYP17 (human testicular microsome); assay: CYP17 enzymatic assay (% inhibition at 10 nM), version 1 (Biological Example 5); format: biochemical; details: 10 nM compound, DHEA by ELISA, read-out: Biological Example No. 5: CYP17 percent inhibition at 10 nM (version 1)
Description: The assays were performed in 96-well plates. Typical assays were carried out in total 100 μL volume that included test compounds at 10 nM concentration, 1× reaction buffer, 0.5 mM NADPH, 1 μM 17α-hydroxypregnenolone, and 2.5 μL of diluted human testicular microsome (Celsis. Cat #S00110). Reaction without test compound served as positive control. Reactions were allowed to incubate at 37° C. for 90 minutes with gentle shaking. The reaction was stopped by directly applying the enzymatic reaction mixture to ELISA plate for evaluation of DHEA concentration according to manufacturer's protocol (IBL America). A standard curve (OD450 vs. DHEA concentration) was generated using purified DHEA. […] Percent inhibition (inhibition %) of the compound was calculated using normalized DHEA concentration based on following formula: 100-([DHEA] of compound/[DHEA] of positive control *100).

[6] = testosterone, read-out: CYP17 cellular assay IC50 (Biological Example No. 7)
[7] = read-out: CYP17 enzymatic assay % inhibition at 1 nM (Biological Example No. 12)
[8] = read-out: Biological Example No. 4: CYP17 enzymatic assay IC50
[9] = testosterone, read-out: Biological Example No. 7: CYP17 cellular assay IC50
[10] = read-out: Biological Example No. 12: CYP17 enzymatic assay % inhibition at 1 nM
[11] = DHEA by ELISA, read-out: Biological Example No. 4: CYP17 enzymatic assay IC50
[12] = testosterone by ELISA, 24 hours, read-out: Biological Example No. 7: CYP17 cellular assay IC50

Row | Compound | IC50 [1, 6] | inhibition at 0.001 µM [2, 7] | half-life at 1 μM [3] | IC50 [4, 8] | IC50 [1, 9] | inhibition at 0.001 µM [2, 10] | IC50 [4, 11] | inhibition at 0.01 µM [5] | IC50 [1, 12] | IC50 ([4]; read-out: CYP17 enzymatic assay IC50 (Biological Example No. 4))
1 | CC(C)C(=O)N[C@@H]1CC[C@@]2(C)C(CCC3C2CC[C@]2(C)C(c4cccnc4)=CCC32)C1 (stereo partly drawn) [Compound 216, N-((3R,10S,13S)-10,13-dimethyl-17-(pyridin-3-yl)-2,3,4,5,6,7,8,9,10,11,12,13,14,15-tetradecahydro-1H-cyclopenta[a]phenanthren-3-yl)isobutyramide] | < 15 nM | > 50% | 1 to 50 min |  |  |  |  |  |  | 
2 | C[C@]1(O)CC[C@@]2(C)C(CCC3C2CC[C@]2(C)C(c4cncc(F)c4)=CCC32)C1 (stereo partly drawn) [Compound 264, (3S,10S,13S)-17-(5-fluoropyridin-3-yl)-3,10,13-trimethyl-2,3,4,5,6,7,8,9,10,11,12,13,14,15-tetradecahydro-1H-cyclopenta[a]phenanthren-3-ol] |  |  | 1 to 50 min | < 11 nM | < 15 nM |  |  |  |  | 
3 | C[C@]12CC[C@H]3[C@@H](CC4CC45C[C@@H](O)CC[C@]35C)[C@@H]1CC=C2c1cccnc1 (single isomer, unassigned) [Compound 317] |  |  | 1 to 50 min | < 11 nM | < 15 nM | > 50% |  |  |  | 
4 | C[C@]12CCCC(=O)C1CC[C@@H]1[C@@H]2CC[C@]2(C)C(c3cccnc3)=CC[C@@H]12 (stereo partly drawn) [Compound 89, (10R,13S)-10,13-dimethyl-17-(pyridin-3-yl)-2,3,5,6,7,8,9,11,12,13,14,15-dodecahydro-1H-cyclopenta[a]phenanthren-4(10H)-one] |  |  |  |  |  |  | < 11 nM | > 80% | < 15 nM | 
5 | C[C@]12CCNC(=O)C=C1CCC1C2CC[C@]2(C)C(c3cncc(C(F)F)c3)=CCC12 (stereo partly drawn) [Compound 386, (5aR,7aS)-8-(5-(difluoromethyl)pyridin-3-yl)-5a,7a-dimethyl-3,4,5,5a,5b,6,7,7a,10,10a,11,12-dodecahydrocyclopenta[5,6]naphtho[1,2-d]azepin-2(10bH)-one] |  |  | 1 to 50 min | < 11 nM | < 15 nM | > 50% |  |  |  | 
6 | CC(=O)N[C@@H]1CC[C@@]2(C)C(CCC3C2CC[C@]2(C)C(c4cnccc4C)=CCC32)C1 (stereo partly drawn) [Compound 21, N-((3R,10S,13S)-10,13-dimethyl-17-(4-methylpyridin-3-yl)-2,3,4,5,6,7,8,9,10,11,12,13,14,15-tetradecahydro-1H-cyclopenta[a]phenanthren-3-yl)acetamide] | < 15 nM | > 50% | 1 to 50 min |  |  |  |  |  |  | 
7 | C[C@]12CCC(=O)C=C1C=CC1C2CC[C@]2(C)C(c3cncc(F)c3)=CCC12 (stereo partly drawn) [Compound 409, (10R,13S)-17-(5-fluoropyridin-3-yl)-10,13-dimethyl-8,9,10,11,12,13,14,15-octahydro-1H-cyclopenta[a]phenanthren-3(2H)-one] |  |  | 1 to 50 min | < 11 nM | < 15 nM | > 50% |  |  |  | 
8 | C[C@]12CC(O)CC1CCC1C2CC[C@]2(C)C(c3cncc(F)c3)=CCC12 (stereo partly drawn) [Compound 398, (3aS,5aS)-6-(5-fluoropyridin-3-yl)-3a,5a-dimethyl-1,2,3,3a,3b,4,5,5a,8,8a,8b,9,10,10a-tetradecahydrodicyclopenta[a,f]naphthalen-2-ol] |  |  | > 50 min | < 11 nM | < 15 nM | 10 to 50% |  |  |  | 
9 | C[C@]12CCC3C(CC(F)C4(O)C[C@@H](O)CC[C@]34C)C1CC=C2c1cncc(F)c1 (stereo partly drawn) [Compound 321, (3S,10R,13S)-6-fluoro-17-(5-fluoropyridin-3-yl)-10,13-dimethyl-2,3,4,5,6,7,8,9,10,11,12,13,14,15-tetradecahydro-1H-cyclopenta[a]phenanthrene-3,5-diol] |  |  | 1 to 50 min | < 11 nM | < 15 nM | > 50% |  |  |  | 
10 | C[C@]12CCC(=O)C=C1C1CC1[C@@H]1[C@@H]2CC[C@]2(C)C(c3cncc(F)c3)=CC[C@@H]12 (stereo partly drawn) [Compound 330, (4aR,6aS)-7-(5-fluoropyridin-3-yl)-4a,6a-dimethyl-4,4a,4b,5,6,6a,9,9a,9b,9c,10,10a-dodecahydrocyclopenta[a]cyclopropa[l]phenanthren-2(3H)-one] |  |  | 1 to 50 min | < 11 nM | < 15 nM | > 50% |  |  |  | 
11 | C[C@]12CC(O)CC1CCC1C2CC[C@]2(C)C(c3cccnc3)=CCC12 (stereo partly drawn) [Compound 399, (3aS,5aS)-3a,5a-dimethyl-6-(pyridin-3-yl)-1,2,3,3a,3b,4,5,5a,8,8a,8b,9,10,10a-tetradecahydrodicyclopenta[a,f]naphthalen-2-ol] |  |  | 1 to 50 min | < 11 nM | < 15 nM | > 50% |  |  |  | 
12 | C[C@]12CC[C@H]3[C@@H](CC=C4C[C@@H](O)CC[C@@]43C)C1=CC=C2c1cncc(F)c1 [Compound 271, (3S,10R,13S)-17-(5-fluoropyridin-3-yl)-10,13-dimethyl-2,3,4,7,8,9,10,11,12,13-decahydro-1H-cyclopenta[a]phenanthren-3-ol] |  |  | 1 to 50 min | < 11 nM | < 15 nM | > 50% |  |  |  | 
13 | CC(=O)O[C@H]1CC[C@@]2(C)[C@@H](CC[C@@H]3[C@@H]2CC[C@]2(C)C(n4ccnn4)=CC[C@@H]32)C1 [Compound 130, (3S,5S,8R,9S,10S,13S,14S)-10,13-dimethyl-17-(1H-1,2,3-triazol-1-yl)-2,3,4,5,6,7,8,9,10,11,12,13,14,15-tetradecahydro-1H-cyclopenta[a]phenanthren-3-yl acetate] |  |  |  |  |  |  | < 11 nM | > 80% | < 15 nM | 
14 | CC(=O)N[C@@H]1CC[C@@]2(C)C(=CCC3C4=CC=C(c5cccnc5)[C@@]4(C)CCC32)C1 (stereo partly drawn) [Compound 243, N-((3R,10R,13S)-10,13-dimethyl-17-(pyridin-3-yl)-2,3,4,7,8,9,10,11,12,13-decahydro-1H-cyclopenta[a]phenanthren-3-yl)acetamide] | < 15 nM | > 50% | 1 to 50 min |  |  |  |  |  |  | 
15 | C[C@]12CC[C@H](O)CC1=CCC1C2CC[C@]2(C)C(c3cncc(C(F)F)c3)=CCC12 (stereo partly drawn) [Compound 279, (3S,10R,13S)-17-(5-(difluoromethyl)pyridin-3-yl)-10,13-dimethyl-2,3,4,7,8,9,10,11,12,13,14,15-dodecahydro-1H-cyclopenta[a]phenanthren-3-ol] |  |  | > 50 min | < 11 nM | < 15 nM | > 50% |  |  |  | 
16 | Cc1ccncc1C1=CC=C2[C@@H]3CC=C4C[C@@H](O)CC[C@]4(C)[C@H]3CC[C@]12C [Compound 190, (3S,10R,13S)-10,13-dimethyl-17-(4-methylpyridin-3-yl)-2,3,4,7,8,9,10,11,12,13-decahydro-1H-cyclopenta[a]phenanthren-3-ol] | 15 to 100 nM | > 50% | 1 to 50 min |  |  |  |  |  |  | 
17 | C[C@]12CCC(F)CC1=CC[C@@H]1[C@@H]2CC[C@]2(C)C(c3cncc(F)c3)=CC[C@@H]12 (stereo partly drawn) [Compound 401, 3-fluoro-5-((10R,13S)-3-fluoro-10,13-dimethyl-2,3,4,7,8,9,10,11,12,13,14,15-dodecahydro-1H-cyclopenta[a]phenanthren-17-yl)pyridine] |  |  | > 50 min | < 11 nM | < 15 nM |  |  |  |  | 
18 | C[C@]12CC[C@H]3[C@@H](CCC45CC4C(O)CC[C@]35C)[C@@H]1CC=C2c1cccnc1 (stereo partly drawn) [Compound 314, (4aR,6aS)-4a,6a-dimethyl-7-(pyridin-3-yl)-1a,2,3,4,4a,4b,5,6,6a,9,9a,9b,10,11-tetradecahydro-1H-cyclopenta[a]cyclopropa[j]phenanthren-2-ol] | < 15 nM | > 50% |  |  |  |  |  |  |  | < 11 nM
